Consider 16 molecules from patent US5120782A, “Substituted pyrrolo-pyridines pharmaceuticals” (Bayer Aktiengesellschaft, priority 1990, dated 1992).

This experiment concerns the target T1, 3-hydroxy-3-methyl-glutaryl-coenzyme A (HMG-CoA) reductase (Rattus norvegicus, UniProt P51639).
T1 construct: the livers were removed from the animals and placed on ice; from tissue; host or cells: liver of male Rico rats fed colestyramine; 100,000 g (microsomal) pellet, frozen at -78° C
T1 sequence (P51639 1-887): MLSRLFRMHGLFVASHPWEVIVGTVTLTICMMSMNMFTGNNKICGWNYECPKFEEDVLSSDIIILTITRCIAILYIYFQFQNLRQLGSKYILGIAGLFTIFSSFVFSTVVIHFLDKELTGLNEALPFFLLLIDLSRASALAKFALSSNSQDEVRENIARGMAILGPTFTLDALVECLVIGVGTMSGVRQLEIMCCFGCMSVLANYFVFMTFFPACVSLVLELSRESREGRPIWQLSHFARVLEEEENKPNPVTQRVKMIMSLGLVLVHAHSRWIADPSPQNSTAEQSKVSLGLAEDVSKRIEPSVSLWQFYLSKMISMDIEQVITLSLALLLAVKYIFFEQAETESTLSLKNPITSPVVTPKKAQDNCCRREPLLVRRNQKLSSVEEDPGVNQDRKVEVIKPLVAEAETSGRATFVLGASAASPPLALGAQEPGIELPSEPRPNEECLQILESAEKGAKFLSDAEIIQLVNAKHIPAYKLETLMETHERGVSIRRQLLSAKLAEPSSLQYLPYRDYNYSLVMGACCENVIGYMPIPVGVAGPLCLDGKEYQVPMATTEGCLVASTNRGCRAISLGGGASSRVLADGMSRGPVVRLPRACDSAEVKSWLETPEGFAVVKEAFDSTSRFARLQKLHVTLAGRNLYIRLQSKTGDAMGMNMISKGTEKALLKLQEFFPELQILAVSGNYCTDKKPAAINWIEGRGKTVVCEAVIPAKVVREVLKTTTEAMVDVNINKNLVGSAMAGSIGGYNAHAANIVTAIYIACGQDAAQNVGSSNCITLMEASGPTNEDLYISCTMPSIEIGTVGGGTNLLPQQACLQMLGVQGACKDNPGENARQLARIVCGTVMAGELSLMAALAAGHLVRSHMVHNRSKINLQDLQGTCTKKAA
The experiment in a line: enzyme activity determination, inhibition of HMG-CoA reductase relative to mevinolin. The following applies: relative inhibitory potency; IC50 of reference mevinolin set at 1 and compared with simultaneously determined IC50 of test compound; 20 min pre-incubation, 60 min at 37° C. It is filed as biochemical, Male Rico rats (liver). On the procedure: The enzyme activity determination was carried out as modified by G. C. Ness et al., Archives of Biochemistry and Biophysics 197, 493-499 (1979). Male Rico rats (body weight 300-400 g) were treated with altromin powdered feed, to which 40 g of colestyramine/kg of feed had been added, for 11 days. After decapitation, the livers were removed from the animals and placed on ice. The livers were comminuted and homogenized 3 times in a Potter-Elvejem homogenizsr in 3 volumes of 0.1 M sucrose, 0.05 M KCl, 0.04 M Kx Hy phosphate, 0.03 M ethylene-diaminetetraacetic acid, 0.002 M dithiothreitol (SPE) buffer pH 7.2. The mixture was then centrifuged at 15,000 g for 15 minutes and the sediment was discarded. The supernatant was sedimented at 100,000 g for 75 minutes. The pellet was taken up in 1/4 volumes of SPE buffer, homogenized again and then centrifuged again at 100,000 g for 60 minutes. The pellet was taken up using a 5-fold amount of its volume of SPE buffer, homogenized and frozen and stored at -78° C. (=enzyme solution).
For testing, the test compounds (or mevinolin as a reference substance) were dissolved in dimethylformamide with the addition of 5 vol. % of 1 N NaOH and employed in the enzyme test using 10 μl in various concentrations. The test was begun after 20 minutes pre-incubation of the compounds with the enzyme at 37° C. The test mixture amounted to 0.380 ml and contained 4 μmol of glucose 6-phosphate, 1.1 mg of bovine serum albumin, 2.1 μmol of dithiothreitol, 0.35 μmol of NADP, 1 unit of glucose 6-phosphate dehydrogenase, 35 μmol of Kx Hy phosphate pH 7.2, 20 μl of enzyme preparation and 56 nmol of 3-hydroxy-3-methyl--glutaryl coenzyme A (glutaryl-3-^14 C) of 100,000 dpm.
After an incubation of 60 minutes at 37° C., the mixture was centrifuged and 600 μl of the supernatant was applied to a 0.7×4 cm column packed with a 5-chloride 100-200 mesh (anion exchanger). The column was washed with 2 ml of distilled water and 3 ml of Aquasol was added to the runnings plus washing water and counted in an LKB scintillation counter. IC50 values were determined by intrapolation by plotting the percentage inhibition against the concentration of the compound in the test. In order to determine the relative inhibitory potency, the IC50 value of the reference substance mevinolin was set at 1 and compared with the simultaneously determined IC50 value of the test compound.
Take `COC(=O)C[C@H](O)C[C@H](O)/C=C/c1c(C(C)C)nc2[nH]ccc2c1-c1ccc(F)cc1` (relative stereo) [Example 1a, Methyl erythro-(E)-7-[4-(4-fluorophenyl)-6-isopropyl-1H-pyrrolo[2,3-b]pyridin-5-yl]3,5-dihydroxy-hept-6-enoate]: the “in vitro relative activity (Mevinolin = 1)” value (“in vitro relative activity” for short) is 3.
`COC(=O)C[C@H](O)C[C@H](O)/C=C/c1c(C(C)C)nc2c(ccn2C)c1-c1ccc(F)cc1` (relative stereo) [Example 1b]: the “in vitro relative activity” value was 3.
In the case of `COC(=O)C[C@H](O)C[C@H](O)/C=C/c1c(C(C)C)nc2c(ccn2C(C)C)c1-c1ccc(F)cc1` (relative stereo) [Example 1c], the “in vitro relative activity” value is listed as 13.
Regarding `COC(=O)C[C@H](O)C[C@H](O)/C=C/c1c(C(C)C)nc2c(ccn2CC#N)c1-c1ccc(F)cc1` (relative stereo) [Example 1d], the “in vitro relative activity” value is 27.
For `C#CCn1ccc2c(-c3ccc(F)cc3)c(/C=C/[C@@H](O)C[C@@H](O)CC(=O)OC)c(C(C)C)nc21` (relative stereo) [Example 1e], the “in vitro relative activity” value was found to be 17.
For `COC(=O)C[C@H](O)C[C@H](O)/C=C/c1c(C(C)C)nc2c(ccn2CCc2ccccc2)c1-c1ccc(F)cc1` (relative stereo) [Example 1f], the “in vitro relative activity” value is given as 17.
For `COC(=O)C[C@H](O)C[C@H](O)/C=C/c1c(C(C)C)nc2c(ccn2Cc2ccccc2)c1-c1ccc(F)cc1` (relative stereo) [Example 1g], the “in vitro relative activity” value came out at 4.
For `C=CCn1ccc2c(-c3ccc(F)cc3)c(/C=C/[C@@H](O)C[C@@H](O)CC(=O)OC)c(C(C)C)nc21` (relative stereo) [Example 1h], the “in vitro relative activity” value stood at 33.
For `COC(=O)C[C@H](O)C[C@H](O)/C=C/c1c(C(C)C)nc2c(ccn2Cc2cccnc2)c1-c1ccc(F)cc1` (relative stereo) [Example 1i] the value was 9; for `COC(=O)C[C@H](O)C[C@H](O)/C=C/c1c(C(C)C)nc2c(ccn2CCC#N)c1-c1ccc(F)cc1` (relative stereo) [Example 1j], 24; for `CC(C)c1nc2[nH]ccc2c(-c2ccc(F)cc2)c1/C=C/[C@@H](O)C[C@@H](O)CC(=O)O` (relative stereo) [Example 2a, Sodium erythro-(E)-7-[4-(4-fluorophenyl)-6-isopropyl-1H-pyrrolo[2,3-b]pyridin-5-yl]-3,5-dihydroxy-hept-6-enoate], 3.
As for `CC(C)c1nc2c(ccn2C)c(-c2ccc(F)cc2)c1/C=C/[C@@H](O)C[C@@H](O)CC(=O)O` (relative stereo) [Example 2b], the “in vitro relative activity” value came out at 3.
As for `CC(C)c1nc2c(ccn2C(C)C)c(-c2ccc(F)cc2)c1/C=C/[C@@H](O)C[C@@H](O)CC(=O)O` (relative stereo) [Example 2c], the “in vitro relative activity” value was 3.
With `CC(C)c1nc2c(ccn2CCc2ccccc2)c(-c2ccc(F)cc2)c1/C=C/[C@@H](O)C[C@@H](O)CC(=O)O` (relative stereo) [Example 2f], the “in vitro relative activity” value came to 10.
Turning to `CC(C)c1nc2c(ccn2Cc2ccccc2)c(-c2ccc(F)cc2)c1/C=C/[C@@H](O)C[C@@H](O)CC(=O)O` (relative stereo) [Example 2g], the “in vitro relative activity” value is listed as 2.
For `C=CCn1ccc2c(-c3ccc(F)cc3)c(/C=C/[C@@H](O)C[C@@H](O)CC(=O)O)c(C(C)C)nc21` (relative stereo) [Example 2h], the “in vitro relative activity” value was determined as 10.
